# Measurements: US20080113900A1, “Pharmaceutical compositions and therapeutic applications for the use of a synthetic vitamin B12 derivative, glutathionylcobalamin” (priority 2006, published 2008)
# “And” between values parts separate entries of the source, which are not always exact repeats. Equal entries are not always repeated.
# Tests used:
# [1] = tested on: SK-HEP-1 cells; experiment: Protection of endothelial cells from homocysteine-induced cell death (MTS assay); format: cell-based, human; conditions: for Mean (FIG. 14a, protection of SK-HEP-1 cells from Hcy in the presence of folate): folate 25 μM present, [GSCbl] = 15 μM, [CNCbl] = 15 μM, [MeCbl] = 12.5 μM, [HOCbl] = 17.5 μM, [GSH] = 100 μM; for Absorbance at 490 nm: single replicates Y1-Y6
# Procedure: The effect of a constant concentration of NACCbl and GSCbl to protect cells against variable concentrations of homocysteine was assessed. […] Cell viability was determined by MTS® assay. Data shown in FIG. 4 are representative of means ±SE of 6 independent samples. FIG. 4 illustrates that NACCbl (▪) and GSCbl (▴) protect endothelial cells from the effect of homocysteine. […] Cell viability was determined by MTS® assay. […] There was a decrease in protection as homocysteine concentration increased, but there was still ˜60% survival at 50 μM homocysteine.
# The data was normalized (log 2 and log 10) as shown in FIGS. 16 and 17 and Tables 16 and 17, respectively, below.
# [2] = Decomposition in PBS at 37° C. monitored by UV/Vis spectrophotometry; format: physicochemical
# Procedure: The decomposition of GSCbl, NACCbl, and HcyCbl in PBS at 37° C. was monitored by UV/Vis spectrophotometry.
# [3] = tested on: Hsp70; experiment: Hsp70 gene expression (RT-PCR, densitometry); conditions: SK-HEP-1; Quercitin 15 μM
# Procedure: (§1) Cells were plated into 6-, 12-, or 24-well cell culture clusters, at 2×10^3, 2×10^5, or 1×10^5 cells per well and incubated until 90% confluent. Treatments were applied as above.
# (§2) Following incubation, cells were subjected to mRNA extraction followed by cDNA synthesis for each sample under test. Polymerase chain reaction cDNA templates were prepared for simplex PCR protocol. PCR products were then visualized using a UV Transilluminator and images captured using a Kodak ID gel imaging system. Densitometry and statistical analysis was then performed on each gene expression band image using PSP® v 10.0 running under Windows XP®.
# (§3) mRNA extraction was performed using the Quickprep micro mRNA Purification Kit. Following incubation of cells post-treatment, the media was removed from the cells, adherent cells were re-suspended in 0.4 ml extraction buffer and 0.8 ml elution buffer at 65° C. was added.
# A reaction mixture was prepared in individual microcentrifuge tubes containing 2 cDNA synthesis beads, 32 μl of the mRNA solution and 1 μl of pd(N)6. This mixture was incubated at 37° C. in a water bath for 60 minutes. After incubation, 27 μl of RNase-free DEPC treated water was added to each tube to make a total volume 60 μl. cDNA samples were prepared in duplicate. Sample 1 was used immediately in RT-PCR protocol.
# Microcentrifuge tubes from puReTaq™Ready-To-Go™ PCR Beads containing one PCR bead were labeled for each sample required. Added to the PCR bead were 17 μl of RNase-free DEPC treated water, 1 μl sense primer, 1 μl anti-sense primer and 5 μl of the cDNA solution. RT-PCR conditions were as follows: Hsp70 and β-actin, pre-treatment step, 94° C. for 1 minute, followed by denaturing at 92° C. for 1 minute, annealing at 60° C. for 1 minute and extension at 72° C. for 1 minute. Total cycles, 30, post-treatment was then carried out at 72° C. for 10 minutes. For Hsp32, pre-treatment step, 95° C. for 2 minutes, followed by denaturing at 94° C. for 30 seconds, annealing at 58° C. for 1 minute and extension at 72° C. for 1 minute. […]
# [4] = tested on: Hsp32; experiment: Hsp32 gene expression (RT-PCR, densitometry); format: cell-based, human; conditions: SK-HEP-1; Sn (IX) protoporphyrin 25 μM; Quercitin 15 μM
# Procedure: as §1, §2, §3
# A reaction mixture was prepared in individual microcentrifuge tubes containing 2 cDNA synthesis beads, 32 μl of the mRNA solution and 1 μl of pd(N)6. This mixture was incubated at 37° C. in a water bath for 60 minutes. After incubation, 27 μl of RNase-free DEPC treated water was added to each tube to make a total volume 60 μl. cDNA samples were prepared in duplicate. Sample 1 was used immediately in RT-PCR protocol. Sample 2 was prepared for qPCR protocol by the addition of 150 μl of 95% ice-cold ethanol and stored at −20° C.
# Microcentrifuge tubes from puReTaq™Ready-To-Go™ PCR Beads containing one PCR bead were labeled for each sample required. Added to the PCR bead were 17 μl of RNase-free DEPC treated water, 1 μl sense primer, 1 μl anti-sense primer and 5 μl of the cDNA solution. RT-PCR conditions were as follows: Hsp70 and β-actin, pre-treatment step, 94° C. for 1 minute, followed by denaturing at 92° C. for 1 minute, annealing at 60° C. for 1 minute and extension at 72° C. for 1 minute. Total cycles, 30, post-treatment was then carried out at 72° C. for 10 minutes. For Hsp32, pre-treatment step, 95° C. for 2 minutes, followed by denaturing at 94° C. for 30 seconds, annealing at 58° C. for 1 minute and extension at 72° C. for 1 minute. Total cycles 45, post treatment was then carried out at 72° C. for 10 minutes. Following RT-PCR, samples were stored at −20° C.
# Gels were visualised on a UV Transilluminator. Photographs were stored using a Kodak Digital camera system fitted with a UV filter set connected to a PC. Images were then transferred to the Kodak ID gel imaging system. Densitometry was performed on each gene expression band using PSP™ v10 running under Windows XP®.
# Experiments were conducted using Hsp32 and Hsp 70 gene expression as the basis for study. […] The densitometric data are presented as means ±SEM of n=3 separate experiments. *p<0.05 or **p<0.01, treatment vs. control.
# [5] = [Hcy] 30 μM, [NACCbl] = 12.5 μM, [NAC] = 45 μM
# [6] = Conc. Hcy 0.000, NACCbl 30 μM, NAC 75 μM, n = 6
# [7] = Conc. Hcy 1.780, NACCbl 30 μM, NAC 75 μM, n = 6
# [8] = Conc. Hcy 3.125, NACCbl 30 μM, NAC 75 μM, n = 6
# [9] = Conc. Hcy 6.250, NACCbl 30 μM, NAC 75 μM, n = 6
# [10] = Conc. Hcy 12.500, NACCbl 30 μM, NAC 75 μM, n = 6
# [11] = Conc. Hcy 25.000, NACCbl 30 μM, NAC 75 μM, n = 6
# [12] = Conc. Hcy 50.000, NACCbl 30 μM, NAC 75 μM, n = 6
# [13] = Conc. Hcy 100.000, NACCbl 30 μM, NAC 75 μM, n = 6
# [14] = Conc. Hcy 200.000, NACCbl 30 μM, NAC 75 μM, n = 6
smiles,measurement,setting,value
"N[C@@H](CCC(=O)N[C@@H](CS)C(=O)NCC(=O)O)C(=O)O [GSH, γ-L-Glutamyl-L-cysteinyl-glycine, reference compound]","Mean (FIG. 14a, protection of SK-HEP-1 cells from Hcy in the presence of folate)",[1]; [5],1.409
"C/C1=C2/[N-][C@H]([C@H](CC(N)=O)[C@@]2(C)CCC(=O)NC[C@@H](C)OP(=O)([O-])O[C@H]2[C@@H](O)[C@@H](n3cnc4cc(C)c(C)cc43)O[C@@H]2CO)[C@]2(C)N=C(/C(C)=C3N=C(/C=C4N=C1[C@@H](CCC(N)=O)C\4(C)C)[C@@H](CCC(N)=O)[C@]\3(C)CC(N)=O)[C@@H](CCC(N)=O)[C@]2(C)CC(N)=O.[Co+3].[OH-] [HOCbl, Hydroxocobalamin, reference compound]","Mean (FIG. 14a, protection of SK-HEP-1 cells from Hcy in the presence of folate)",[1]; [5],0.9498
"CC1=C2N=C(C=C3N=C(C(C)=C4[N-]C(C(CC(N)=O)C4(C)CCC(=O)NCC(C)OP(=O)([O-])OC4C(CO)OC(n5cnc6cc(C)c(C)cc65)C4O)C4(C)N=C1C(CCC(N)=O)C4(C)CC(N)=O)C(CCC(N)=O)C3(C)C)C(CCC(N)=O)C2(C)CC(N)=O.NC(CC[S-])C(=O)O.[Co+3] [HcyCbl, D,L-homocysteinyl-cobalamin]",Kobs,[2],0.0018 min⁻¹
same,t1/2,[2],6.6 h
"C/C1=C2/[N-][C@H]([C@H](CC(N)=O)[C@@]2(C)CCC(=O)NC[C@H](C)OP(=O)([O-])O[C@H]2[C@@H](O)[C@@H](n3cnc4cc(C)c(C)cc43)O[C@@H]2CO)[C@]2(C)N=C(/C(C)=C3N=C(/C=C4N=C1[C@@H](CCC(N)=O)C\4(C)C)[C@@H](CCC(N)=O)[C@]\3(C)CC(N)=O)[C@@H](CCC(N)=O)[C@]2(C)CC(N)=O.[CH3-].[Co+3] [MeCbl, Methylcobalamin, reference compound]","Mean (FIG. 14a, protection of SK-HEP-1 cells from Hcy in the presence of folate)",[1]; [5],1.322
"CC(=O)N[C@@H](CS)C(=O)O [NAC, N-Acetyl-L-Cysteine, reference compound]","Normalized Data Log 2, Mean",[1]; [6],84.288
same,"Normalized Data Log 10, Mean",[1]; [6],100.000
same,"Normalized Data Log 2, Mean",[1]; [7],69.880
same,"Normalized Data Log 10, Mean",[1]; [7],83.752
same,"Normalized Data Log 2, Mean",[1]; [8],60.687
same,"Normalized Data Log 10, Mean",[1]; [8],73.385
same,"Normalized Data Log 2, Mean",[1]; [9],58.837
same,"Normalized Data Log 10, Mean",[1]; [9],71.298
same,"Normalized Data Log 2, Mean",[1]; [10],45.397
same,"Normalized Data Log 10, Mean",[1]; [10],56.141
same,"Normalized Data Log 2, Mean",[1]; [11],41.900
same,"Normalized Data Log 10, Mean",[1]; [11],52.198
same,"Normalized Data Log 2, Mean",[1]; [12],24.035
same,"Normalized Data Log 10, Mean",[1]; [12],32.051
same,"Normalized Data Log 2, Mean",[1]; [13],13.738
same,"Normalized Data Log 10, Mean",[1]; [13],20.439
same,"Normalized Data Log 2, Mean",[1]; [14],11.135
same,"Normalized Data Log 10, Mean",[1]; [14],17.503
same,Absorbance at 490 nm,"[1]; Conc. of Hcy 0.000, NACCbl 30 μM, NAC 75 μM",2.592 and 2.476 and 2.437 and 2.678 and 2.336 and 2.447
same,Absorbance at 490 nm,"[1]; Conc. of Hcy 1.780, NACCbl 30 μM, NAC 75 μM",2.225 and 1.903 and 1.947 and 2.310 and 2.187 and 2.206
same,Absorbance at 490 nm,"[1]; Conc. of Hcy 3.725, NAC 75 μM",1.890 and 2.003 and 1.784 and 1.946 and 1.958 and 1.801
same,Absorbance at 490 nm,"[1]; Conc. of Hcy 6.250, NACCbl 30 μM, NAC 75 μM",1.678 and 1.789 and 1.897 and 1.899 and 1.933 and 1.905
same,Absorbance at 490 nm,"[1]; Conc. of Hcy 12.500, NACCbl 30 μM, NAC 75 μM",1.675 and 1.232 and 1.339 and 1.590 and 1.602 and 1.622
same,Absorbance at 490 nm,"[1]; Conc. of Hcy 25.000, NACCbl 30 μM, NAC 75 μM",1.345 and 1.501 and 1.632 and 1.378 and 1.226 and 1.447
same,Absorbance at 490 nm,"[1]; Conc. of Hcy 50.000, NACCbl 30 μM, NAC 75 μM",0.890 and 0.821 and 1.034 and 1.227 and 0.799 and 1.045
same,Absorbance at 490 nm,"[1]; Conc. of Hcy 100.000, NACCbl 30 μM, NAC 75 μM",0.789 and 0.842 and 0.743 and 0.589 and 0.490 and 0.799
same,Absorbance at 490 nm,"[1]; Conc. of Hcy 200.000, NACCbl 30 μM, NAC 75 μM",0.567 and 0.668 and 0.623 and 0.490 and 0.721 and 0.788
same,"Absorbance at 490 nm, Mean","[1]; SK-HEP-1, NACCbl 30 μM, NAC 75 μM, Hcy conc. 200.000, n = 6, label Hcy = Hcy alone",0.643
same,"Mean (FIG. 14, protection of SK-HEP-1 cells from Hcy)","[1]; [Hcy] 30 μM, [NAC] = 45 μM, [NACCbl] = 12.5 μM, [Folate] = 25 μM where named in the label, label Hcy/HCy = Hcy alone",1.296
same,"Mean (FIG. 14a, protection of SK-HEP-1 cells from Hcy in the presence of folate)",[1]; [5],1.438
same,"Absorbance at 490 nm, Mean","[1]; as E80, Hcy conc. 0.000",2.494
same,"Absorbance at 490 nm, Mean","[1]; as E80, Hcy conc. 1.780",2.130
same,"Absorbance at 490 nm, Mean","[1]; as E80, Hcy conc. 3.125",1.897
same,"Absorbance at 490 nm, Mean","[1]; as E80, Hcy conc. 6.250",1.850
same,"Absorbance at 490 nm, Mean","[1]; as E80, Hcy conc. 12.500",1.510
same,"Absorbance at 490 nm, Mean","[1]; as E80, Hcy conc. 25.000",1.421
same,"Absorbance at 490 nm, Mean","[1]; as E80, Hcy conc. 50.000",0.969
same,"Absorbance at 490 nm, Mean","[1]; as E80, Hcy conc. 100.000",0.709
"O.O.O=c1c(O)c(-c2ccc(O)c(O)c2)oc2cc(O)cc(O)c12 [Quercitin, 2-(3,4-Dihydroxyphenyl)-3,5,7-trihydroxy-4H-1-benzopyran-4-one dihydrate]",Hsp70 gene expression,[3],inhibits
same,Hsp32 gene expression,[4],does not inhibit
"C=CC1=C(C)c2cc3[n-]c(cc4[n-]c(cc5nc(cc1n2)C(C)=C5C=C)c(C)c4CCC(=O)O)c(CCC(=O)O)c3C.[Cl-].[Cl-].[Sn+4] [Sn(IX) protoporphyrin, 8,13-Bis(vinyl)-3,7,12,17-tetramethyl-21H, 23H-porphine-2,18dipropionic acid tin(IV) dichloride]",Hsp32 gene expression,[4],inhibited
